Measurements from ChEMBL document CHEMBL1133894, “Design and synthesis of a highly selective EP4-receptor agonist. Part 2: 5-thia and 9beta-haloPG derivatives with improved stability” (Bioorg Med Chem Lett, 2001).

Key:
Rattus norvegicus [1] = assay: Suppression of production of plasma TNF-alpha after intravenous infusion of 10, 30, 100 and 300 ng/kg/min; significant; assay type: functional, organism-based
Rattus norvegicus [2] = species on record: Rattus norvegicus; assay: Stimulation of Uterine motility which mediates the EP3-receptor in rats; assay type: functional
[3] = molecular target: T1, Prostaglandin E2 receptor EP4 subtype (Mus musculus, UniProt P32240); assay: Affinity for mouse Prostanoid EP4 receptor expressed in CHO cells; assay type: cell-based
[4] = molecular target: T2, Prostaglandin E2 receptor EP3 subtype (Mus musculus, UniProt P30557); assay: Affinity for mouse Prostanoid EP3 receptor expressed in CHO cells; assay type: cell-based
T2 sequence (P30557 whole entry): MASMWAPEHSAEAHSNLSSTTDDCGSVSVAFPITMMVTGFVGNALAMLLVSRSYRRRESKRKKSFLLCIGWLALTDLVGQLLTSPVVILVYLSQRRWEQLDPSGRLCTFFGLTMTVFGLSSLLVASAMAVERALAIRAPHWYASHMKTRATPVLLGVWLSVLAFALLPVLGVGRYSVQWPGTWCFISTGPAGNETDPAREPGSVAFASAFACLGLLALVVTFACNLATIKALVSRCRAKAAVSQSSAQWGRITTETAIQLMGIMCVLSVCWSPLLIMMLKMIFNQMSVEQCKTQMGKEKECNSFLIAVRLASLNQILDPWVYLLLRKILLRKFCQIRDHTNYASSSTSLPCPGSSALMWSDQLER

[5] = molecular target: Prostaglandin E2 receptor EP2 subtype (Mus musculus, UniProt Q62053); assay: Affinity for mouse Prostanoid EP2 receptor expressed in CHO cells; assay type: cell-based
[6] = molecular target: T1, Prostaglandin E2 receptor EP4 subtype; assay: Effective concentration for increased intracellular c-AMP production by mouse Prostanoid EP4 receptor; assay type: functional, cell-based
[7] = molecular target: T3, Prostaglandin E2 receptor EP1 subtype (Mus musculus, UniProt P35375); assay: Affinity for mouse Prostanoid EP1 receptor expressed in CHO cells; assay type: cell-based
T3 sequence (P35375 whole entry): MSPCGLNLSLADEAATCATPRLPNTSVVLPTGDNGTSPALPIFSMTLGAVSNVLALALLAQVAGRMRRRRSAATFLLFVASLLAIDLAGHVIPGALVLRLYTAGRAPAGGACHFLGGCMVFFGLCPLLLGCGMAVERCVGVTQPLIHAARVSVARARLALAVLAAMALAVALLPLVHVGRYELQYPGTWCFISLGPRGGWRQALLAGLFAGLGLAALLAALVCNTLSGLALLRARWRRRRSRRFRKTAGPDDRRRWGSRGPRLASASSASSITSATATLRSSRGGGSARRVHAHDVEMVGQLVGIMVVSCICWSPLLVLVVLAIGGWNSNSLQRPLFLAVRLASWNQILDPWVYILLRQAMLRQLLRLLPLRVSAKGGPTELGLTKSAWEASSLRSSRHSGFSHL

Prostacyclin receptor = Prostacyclin receptor (Homo sapiens, UniProt P43119); assay: Affinity for human Prostanoid IP receptor expressed in CHO cells; assay type: cell-based
Prostacyclin receptor, sequence (P43119 whole entry): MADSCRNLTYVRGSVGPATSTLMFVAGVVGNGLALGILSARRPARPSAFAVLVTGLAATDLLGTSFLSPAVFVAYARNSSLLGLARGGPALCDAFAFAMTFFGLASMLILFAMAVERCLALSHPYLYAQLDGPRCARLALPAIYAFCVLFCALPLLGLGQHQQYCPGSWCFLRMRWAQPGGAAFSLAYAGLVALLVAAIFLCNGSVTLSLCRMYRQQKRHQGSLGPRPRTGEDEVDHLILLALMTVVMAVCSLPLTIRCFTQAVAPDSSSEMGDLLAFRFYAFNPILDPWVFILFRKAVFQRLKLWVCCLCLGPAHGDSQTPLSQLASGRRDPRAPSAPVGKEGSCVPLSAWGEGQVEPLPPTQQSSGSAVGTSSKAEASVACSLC

T1 sequence (P32240 whole entry): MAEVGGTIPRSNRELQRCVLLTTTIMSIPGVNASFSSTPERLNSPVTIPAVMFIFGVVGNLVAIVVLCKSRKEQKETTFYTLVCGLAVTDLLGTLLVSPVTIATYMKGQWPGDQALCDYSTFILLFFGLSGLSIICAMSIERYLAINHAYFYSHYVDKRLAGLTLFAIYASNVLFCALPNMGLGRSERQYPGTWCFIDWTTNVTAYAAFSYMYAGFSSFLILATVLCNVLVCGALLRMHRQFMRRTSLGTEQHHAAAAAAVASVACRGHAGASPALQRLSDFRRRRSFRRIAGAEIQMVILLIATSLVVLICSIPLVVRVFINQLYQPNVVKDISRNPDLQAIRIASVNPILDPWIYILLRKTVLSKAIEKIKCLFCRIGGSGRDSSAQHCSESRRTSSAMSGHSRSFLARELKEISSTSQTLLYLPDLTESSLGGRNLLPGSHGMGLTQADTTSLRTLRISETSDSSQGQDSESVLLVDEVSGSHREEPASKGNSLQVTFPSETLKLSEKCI
Prostaglandin E2 receptor EP2 subtype, sequence (Q62053 whole entry): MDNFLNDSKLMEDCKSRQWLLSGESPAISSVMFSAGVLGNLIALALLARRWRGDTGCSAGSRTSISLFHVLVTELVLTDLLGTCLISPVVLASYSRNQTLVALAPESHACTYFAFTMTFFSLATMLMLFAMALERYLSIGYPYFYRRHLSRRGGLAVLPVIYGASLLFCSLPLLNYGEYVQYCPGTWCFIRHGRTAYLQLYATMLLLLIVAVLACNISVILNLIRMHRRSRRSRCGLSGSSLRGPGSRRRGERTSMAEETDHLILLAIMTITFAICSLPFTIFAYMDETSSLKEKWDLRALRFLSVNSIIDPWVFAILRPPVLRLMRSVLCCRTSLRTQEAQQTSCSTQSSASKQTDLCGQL

SMILES	Ki [3] [nM]	Ki [4] [nM]	Ki [5] [nM]	EC50 [6] [nM]	Ki [7] [nM]	Ki (Prostacyclin receptor) [nM]	Supression (Rattus norvegicus [1])	ED50 (Rattus norvegicus [2]) [mg/kg]
COCc1cccc(C[C@H](O)/C=C/[C@H]2[C@H](O)CC(=O)[C@@H]2CCSCCCC(=O)OC)c1 [RIVENPROST]							significant	> 300
CCCCC[C@H](O)/C=C/[C@H]1[C@H](O)CC(=O)[C@@H]1CSCCCCC(=O)O	8.7	2	91	1000	95	1400		
CCCCC[C@H](O)/C=C/[C@H]1[C@H](O)CC(=O)[C@@H]1CCCSCCC(=O)O	11	3.7	340	1000	27	920		
CCCCC[C@H](O)/C=C/[C@H]1[C@H](O)CC(=O)[C@@H]1CCCCCCC(=O)O [ALPROSTADIL]	3.1		22	3.6	6	> 10000		
COCc1cccc(C[C@H](O)/C=C/[C@@H]2[C@@H](CCSCCCC(=O)O)[C@H](F)C[C@H]2O)c1	32		3100	270		> 10000		
CCCCC[C@H](O)/C=C/[C@H]1[C@H](O)CC(=O)[C@@H]1CCCCSCC(=O)O	2.1	1.2	49	46	200	> 10000		
Cc1cc(C[C@H](O)/C=C/[C@@H]2[C@@H](C/C=C/CCCC(=O)O)[C@H](Cl)C[C@H]2O)ccc1O	7.7	2200	290	44	3100	> 10000		
COCc1cccc(C[C@H](O)/C=C/[C@@H]2[C@@H](C/C=C/CCCC(=O)O)[C@H](F)C[C@H]2O)c1	3.4	94	58	14	1700	> 10000		
COCc1cccc(C[C@H](O)/C=C/[C@H]2[C@H](O)CC(=O)[C@@H]2CCSCCCC(=O)O)c1	0.7	56	620	1.6	> 10000	> 10000		

The remaining molecules from weak to strong by Ki [3], led by results:

Ki [3] [nM]	Ki [4] [nM]	Ki [5] [nM]	EC50 [6] [nM]	Ki [7] [nM]	Ki (Prostacyclin receptor) [nM]	SMILES	Supression (Rattus norvegicus [1])	ED50 (Rattus norvegicus [2]) [mg/kg]
4.9		7400	20		> 10000	Cc1cc(C[C@H](O)/C=C/[C@H]2[C@H](O)CC(=O)[C@@H]2CCSCCCC(=O)O)ccc1O		
2.7	740	370	160	5400	> 10000	COCc1cccc(C[C@H](O)/C=C/[C@@H]2[C@@H](CCCCCCC(=O)O)[C@H](Cl)C[C@H]2O)c1		
0.5	1.9	75	3.6	52	750	CCCCC[C@H](O)/C=C/[C@H]1[C@H](O)CC(=O)[C@@H]1CCSCCCC(=O)O		
0.5	92	12	3.3	980	> 10000	COCc1cccc(C[C@H](O)/C=C/[C@@H]2[C@@H](C/C=C/CCCC(=O)O)[C@H](Cl)C[C@H]2O)c1		
